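Dose response: 5 concentrations. Exposure: 48 h. Format: 96-well plates. Endpoint: linear interpolation; highest concentration if not reached. Here, GI50 denotes the concentration required for 50% inhibition of growth.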 The source made the active and inactive calls. No stated cut-off is given here; in the data, active = GI50 up to about 1.1 µM and inactive = higher.
Columns and labels:
Assay in all cases: NCI-60 cell line screen, 48 h
[1] = system: 786-0
[2] = system: A549
[3] = system: CCRF-CEM
[4] = system: COLO 205
[5] = system: DLD-1
[6] = system: DMS-114
[7] = system: DMS-273
[8] = system: HL-60
[9] = system: HOP-62
[10] = system: HOP-92
[11] = system: IGROV-1
[12] = system: K562
[13] = system: KM-20L2
[14] = system: LOX IMVI
[15] = system: LXFL 529
[16] = system: M19-MEL
[17] = system: MOLT-4
[18] = system: NCI-H23
[19] = system: NCI-H460
[20] = system: NCI-H522
[21] = system: OVCAR-3
[22] = system: OVCAR-5
[23] = system: OVCAR-8
[24] = system: RPMI-8226
[25] = system: RXF 393
[26] = system: SF-268
[27] = system: SK-MEL-2
[28] = system: SK-MEL-5
[29] = system: SK-OV-3
[30] = system: SNB-19
[31] = system: SNB-75
[32] = system: SR
[33] = system: SW-620
[34] = system: U-251
[35] = system: UO-31
[36] = system: XF498
[37] = system: A498
[38] = system: ACHN
[39] = system: CAKI-1
[40] = system: EKVX
[41] = system: HCC 2998
[42] = system: HCT-116
[43] = system: HCT-15
[44] = system: HOP-18
[45] = system: HT-29
[46] = system: KM12
[47] = system: M14
[48] = system: Malme-3M
[49] = system: NCI-H226
[50] = system: OVCAR-4
[51] = system: SF-295
[52] = system: SF-539
[53] = system: SK-MEL-28
[54] = system: SN12C
[55] = system: SNB-78
[56] = system: TK-10
[57] = system: UACC-257
[58] = system: UACC-62

Structure (SMILES): COc1cc(CNc2ccc(C)cc2)cc(OC)c1OC
- GI50 [1]: 0.384 µM (active)
- GI50 [2]: 0.5 µM (active)
- GI50 [3]: 0.252 µM (active)
- GI50 [4]: 0.219 µM (active)
- GI50 [5]: 0.45 µM (active)
- GI50 [6]: 0.277 µM (active)
- GI50 [7]: 0.103 µM (active)
- GI50 [8]: 0.0764 µM (active)
- GI50 [9]: 0.386 µM (active)
- GI50 [10]: 3.34 µM (inactive)
- GI50 [11]: 0.659 µM (active)
- GI50 [12]: 0.0826 µM (active)
- GI50 [13]: 0.246 µM (active)
- GI50 [14]: 0.621 µM (active)
- GI50 [15]: 0.635 µM (active)
- GI50 [16]: 0.33 µM (active)
- GI50 [17]: 0.331 µM (active)
- GI50 [18]: 0.361 µM (active)
- GI50 [19]: 0.252 µM (active)
- GI50 [20]: 0.255 µM (active)
- GI50 [21]: 0.213 µM (active)
- GI50 [22]: 1.74 µM (inactive)
- GI50 [23]: 0.624 µM (active)
- GI50 [24]: 0.467 µM (active)
- GI50 [25]: 0.163 µM (active)
- GI50 [26]: 0.741 µM (active)
- GI50 [27]: 0.229 µM (active)
- GI50 [28]: 0.472 µM (active)
- GI50 [29]: 0.301 µM (active)
- GI50 [30]: 0.533 µM (active)
- GI50 [31]: 0.316 µM (active)
- GI50 [32]: 0.138 µM (active)
- GI50 [33]: 0.149 µM (active)
- GI50 [34]: 0.356 µM (active)
- GI50 [35]: 0.807 µM (active)
- GI50 [36]: 0.962 µM (active)

Structure (SMILES): CCCCC1CC(c2ccc(Cl)cc2)=NO1 (stereo not given)
- GI50 [1]: > 100 µM (inactive)
- GI50 [37]: > 100 µM (inactive)
- GI50 [2]: > 100 µM (inactive)
- GI50 [38]: > 100 µM (inactive)
- GI50 [39]: > 100 µM (inactive)
- GI50 [3]: > 100 µM (inactive)
- GI50 [4]: > 100 µM (inactive)
- GI50 [5]: > 100 µM (inactive)
- GI50 [6]: > 100 µM (inactive)
- GI50 [7]: > 100 µM (inactive)
- GI50 [40]: > 100 µM (inactive)
- GI50 [41]: > 100 µM (inactive)
- GI50 [42]: > 100 µM (inactive)
- GI50 [43]: > 100 µM
- GI50 [8]: 85.3 µM (inactive)
- GI50 [44]: > 100 µM (inactive)
- GI50 [9]: > 100 µM (inactive)
- GI50 [10]: > 100 µM (inactive)
- GI50 [45]: > 100 µM (inactive)
- GI50 [11]: > 100 µM (inactive)
- GI50 [12]: > 100 µM (inactive)
- GI50 [46]: > 100 µM (inactive)
- GI50 [15]: > 100 µM (inactive)
- GI50 [47]: > 100 µM (inactive)
- GI50 [16]: > 100 µM (inactive)
- GI50 [17]: > 100 µM (inactive)
- GI50 [48]: > 100 µM (inactive)
- GI50 [49]: > 100 µM (inactive)
- GI50 [18]: > 100 µM (inactive)
- GI50 [19]: > 100 µM (inactive)
- GI50 [20]: > 100 µM (inactive)
- GI50 [21]: > 100 µM (inactive)
- GI50 [50]: > 100 µM (inactive)
- GI50 [22]: > 100 µM (inactive)
- GI50 [23]: > 100 µM (inactive)
- GI50 [24]: > 100 µM (inactive)
- GI50 [26]: > 100 µM (inactive)
- GI50 [51]: > 100 µM (inactive)
- GI50 [52]: > 100 µM (inactive)
- GI50 [53]: > 100 µM (inactive)
- GI50 [27]: > 100 µM (inactive)
- GI50 [28]: > 100 µM (inactive)
- GI50 [29]: > 100 µM (inactive)
- GI50 [54]: > 100 µM (inactive)
- GI50 [30]: > 100 µM (inactive)
- GI50 [31]: > 100 µM (inactive)
- GI50 [55]: > 100 µM (inactive)
- GI50 [32]: > 100 µM (inactive)
- GI50 [33]: > 100 µM (inactive)
- GI50 [56]: > 100 µM (inactive)
- GI50 [34]: > 100 µM (inactive)
- GI50 [57]: > 100 µM (inactive)
- GI50 [58]: > 100 µM (inactive)
- GI50 [35]: > 100 µM (inactive)
